For this assay, the system named is A375 melanoma cells. The assay can be described thus: FITC Annexin V/PI flow cytometry, A375. It is filed as cell-based, human. As to conditions: A375, 24 h. Here is the method:
The FITC Annexin V apoptosis detection kit I (BD Pharmigen™, BD Biosciences, San Jose, CA, USA) was used for the detection of apoptosis using flow cytometry. FITC Annexin V emits green fluorescence which indicates apoptosis, whereas propidium iodide (PI) emits red fluorescence and stains dead cells ([Vermes et al., 1995]). The assay was performed according to the manufacturer’s instructions with minor alterations. In brief, cells were seeded in a 96-well plate and grown to ~90% confluence. The cells were exposed to amounts of the prenylated piperazine derivatives and combinations with elesclomol-Cu(II) 1-Cu corresponding to the IC50 values. […] After incubation, 100 µl 1X binding buffer was added to each tube and then analyzed using the BD FACSVerse™ and BD FACSuite™ Software. […] At least 10,000 cellular events were analyzed for each sample. A logarithmic amplification scale was employed and events plotted on forward scatter (FSC), side scatter (SSC), green fluorescence (FL1) and red fluorescence (FL2). […]
Flow cytometry was employed to establish if the observed decrease in cell viability in melanoma cells was of necrotic or apoptotic origin. Cultured melanoma and keratinocyte cells were exposed to predetermined IC50 concentrations of the prenylated piperazine-DHA derivatives and analyzed using the FITC Annexin V/PI flow cytometry assay. […]
Figure 8 Apoptosis measured by FITC Annexin V/PI assay. […]
In general terms: Flow cytometry measures light scatter and fluorescence of single cells or particles in a stream.

Regarding `CC(C)=CCC/C(C)=C/CC/C(C)=C/CN1CCN([C@@H]2O[C@@H]3O[C@@]4(C)CC[C@H]5[C@H](C)CC[C@@H]([C@H]2C)[C@@]35OO4)CC1` [Farnesylpiperazine-DHA 7, farnesylpiperazine-DHA], the Cells undergoing apoptosis (IC50 concentrations (6 45 µM, 7 30 µM, 1-Cu 2 nM; combinations 1:1)) came out at 30.5 ± 3.7%.
Consider `CC(C)=CCC/C(C)=C/CN1CCN([C@@H]2O[C@@H]3O[C@@]4(C)CC[C@H]5[C@H](C)CC[C@@H]([C@H]2C)[C@@]35OO4)CC1` [Geranylpiperazine-DHA 6, geranylpiperazine-DHA], for which the “Late apoptosis/necrosis (FITC-Annexin V positive and PI positive)” value (45 µM) was determined as 37.7 ± 2.1%.
